In ChEMBL document CHEMBL4507278 (2021):

Tests used:
[1] = target: Mitogen-activated protein kinase kinase kinase 13 (Homo sapiens) (UniProt O43283); details: Compound concentration 1000.0 nM
[2] = target: Serine/threonine-protein kinase Nek10 (Homo sapiens) (UniProt Q6ZWH5); details: Compound concentration 1000.0 nM
[3] = target: Ephrin type-A receptor 5 (Homo sapiens) (UniProt P54756); details: Compound concentration 1000.0 nM
[4] = target: Mitogen-activated protein kinase 15 (Homo sapiens) (UniProt Q8TD08); details: Compound concentration 1000.0 nM
[5] = target: Cyclin-dependent kinase 11A (Homo sapiens) (UniProt Q9UQ88); details: Compound concentration 1000.0 nM
[6] = target: ALK tyrosine kinase receptor (Homo sapiens) (UniProt Q9UM73); details: Compound concentration 1000.0 nM
[7] = target: Insulin-like growth factor 1 receptor (Homo sapiens) (UniProt P08069); details: Compound concentration 1000.0 nM
[8] = tested on: Phosphatidylinositol 4,5-bisphosphate 3-kinase catalytic subunit alpha isoform (Homo sapiens), P42336 [C420R]; details: Compound concentration 1000.0 nM
[9] = target: Ribosomal protein S6 kinase alpha-4 (Homo sapiens) (UniProt O75676); details: Compound concentration 1000.0 nM
[10] = target: Vascular endothelial growth factor receptor 1 (Homo sapiens) (UniProt P17948); details: Compound concentration 1000.0 nM
Vascular endothelial growth factor receptor 1 (Homo sapiens), sequence (P17948 whole entry): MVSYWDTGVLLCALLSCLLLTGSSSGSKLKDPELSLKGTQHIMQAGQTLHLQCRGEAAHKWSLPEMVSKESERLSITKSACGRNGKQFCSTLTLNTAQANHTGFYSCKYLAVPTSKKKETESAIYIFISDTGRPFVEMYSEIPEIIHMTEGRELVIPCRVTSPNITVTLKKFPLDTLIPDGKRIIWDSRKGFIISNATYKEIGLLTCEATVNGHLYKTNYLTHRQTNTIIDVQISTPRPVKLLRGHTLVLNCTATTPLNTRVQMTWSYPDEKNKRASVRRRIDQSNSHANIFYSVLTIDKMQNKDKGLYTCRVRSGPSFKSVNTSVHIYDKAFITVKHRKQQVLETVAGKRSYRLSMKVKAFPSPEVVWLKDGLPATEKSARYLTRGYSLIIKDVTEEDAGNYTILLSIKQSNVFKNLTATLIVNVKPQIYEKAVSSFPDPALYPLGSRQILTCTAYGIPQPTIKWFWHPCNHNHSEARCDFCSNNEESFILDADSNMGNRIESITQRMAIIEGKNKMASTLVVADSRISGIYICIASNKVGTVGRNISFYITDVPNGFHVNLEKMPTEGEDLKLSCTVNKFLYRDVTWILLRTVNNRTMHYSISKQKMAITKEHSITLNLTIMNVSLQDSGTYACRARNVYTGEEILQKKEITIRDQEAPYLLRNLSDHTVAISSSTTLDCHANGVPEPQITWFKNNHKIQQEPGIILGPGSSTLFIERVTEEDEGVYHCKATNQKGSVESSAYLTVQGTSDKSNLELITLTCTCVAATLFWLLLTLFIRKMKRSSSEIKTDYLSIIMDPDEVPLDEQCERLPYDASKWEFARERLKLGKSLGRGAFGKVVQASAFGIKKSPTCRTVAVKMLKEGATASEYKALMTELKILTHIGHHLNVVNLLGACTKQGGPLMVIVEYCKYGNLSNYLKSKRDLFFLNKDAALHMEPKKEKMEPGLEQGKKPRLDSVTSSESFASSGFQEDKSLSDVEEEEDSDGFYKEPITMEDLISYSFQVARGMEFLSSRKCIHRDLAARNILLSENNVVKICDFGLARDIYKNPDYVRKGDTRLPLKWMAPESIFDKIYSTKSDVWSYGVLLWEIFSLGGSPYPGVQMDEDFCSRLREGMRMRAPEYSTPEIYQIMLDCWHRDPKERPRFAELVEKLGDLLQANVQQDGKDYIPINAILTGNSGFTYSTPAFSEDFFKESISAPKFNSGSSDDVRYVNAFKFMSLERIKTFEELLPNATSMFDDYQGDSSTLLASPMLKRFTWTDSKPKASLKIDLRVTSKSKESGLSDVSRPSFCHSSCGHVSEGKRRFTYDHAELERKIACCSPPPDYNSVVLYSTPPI

[11] = target: Serine/threonine-protein kinase STK11 (Homo sapiens) (UniProt Q15831); details: Compound concentration 1000.0 nM
Serine/threonine-protein kinase STK11 (Homo sapiens), sequence (Q15831 whole entry): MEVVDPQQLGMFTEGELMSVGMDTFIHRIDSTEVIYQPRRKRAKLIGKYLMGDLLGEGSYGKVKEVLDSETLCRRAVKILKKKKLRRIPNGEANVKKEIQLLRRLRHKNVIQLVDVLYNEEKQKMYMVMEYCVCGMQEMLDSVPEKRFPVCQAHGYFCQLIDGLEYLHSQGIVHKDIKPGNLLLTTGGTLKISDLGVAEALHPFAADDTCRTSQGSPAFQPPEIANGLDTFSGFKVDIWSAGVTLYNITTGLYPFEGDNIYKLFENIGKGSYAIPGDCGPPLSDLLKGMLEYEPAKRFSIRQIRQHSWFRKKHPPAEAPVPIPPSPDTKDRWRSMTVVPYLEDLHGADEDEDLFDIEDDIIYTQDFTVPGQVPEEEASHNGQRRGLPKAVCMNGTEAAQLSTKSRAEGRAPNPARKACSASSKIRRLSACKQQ

[12] = target: Serine/threonine-protein kinase pim-1 (Homo sapiens) (UniProt P11309); details: Compound concentration 1000.0 nM
[13] = target: Casein kinase II subunit alpha (Homo sapiens) (UniProt P68400); details: Compound concentration 1000.0 nM
[14] = target: STE20-like serine/threonine-protein kinase (Homo sapiens) (UniProt Q9H2G2); details: Compound concentration 1000.0 nM
[15] = target: Phosphatidylinositol 4-kinase beta (Homo sapiens) (UniProt Q9UBF8); details: Compound concentration 1000.0 nM
[16] = target: Calcium/calmodulin-dependent protein kinase type II subunit alpha (Homo sapiens) (UniProt Q9UQM7); details: Compound concentration 1000.0 nM
[17] = tested on: Tyrosine-protein kinase ABL1 (Homo sapiens), P00519 [F317I]; details: Compound concentration 1000.0 nM
[18] = tested on: Tyrosine-protein kinase ABL1 (Homo sapiens), P00519 [H396P]; details: Compound concentration 1000.0 nM
[19] = target: Wee1-like protein kinase 2 (Homo sapiens) (UniProt P0C1S8); details: Compound concentration 1000.0 nM
[20] = target: Citron Rho-interacting kinase (Homo sapiens) (UniProt O14578); details: Compound concentration 1000.0 nM
[21] = target: Phosphatidylinositol 4,5-bisphosphate 3-kinase catalytic subunit gamma isoform (Homo sapiens) (UniProt P48736); details: Compound concentration 1000.0 nM
[22] = target: Dual specificity protein kinase TTK (Homo sapiens) (UniProt P33981); details: Compound concentration 1000.0 nM
[23] = target: Serine/threonine-protein kinase Nek4 (Homo sapiens) (UniProt P51957); details: Compound concentration 1000.0 nM
Serine/threonine-protein kinase Nek4 (Homo sapiens), sequence (P51957 whole entry, looked up): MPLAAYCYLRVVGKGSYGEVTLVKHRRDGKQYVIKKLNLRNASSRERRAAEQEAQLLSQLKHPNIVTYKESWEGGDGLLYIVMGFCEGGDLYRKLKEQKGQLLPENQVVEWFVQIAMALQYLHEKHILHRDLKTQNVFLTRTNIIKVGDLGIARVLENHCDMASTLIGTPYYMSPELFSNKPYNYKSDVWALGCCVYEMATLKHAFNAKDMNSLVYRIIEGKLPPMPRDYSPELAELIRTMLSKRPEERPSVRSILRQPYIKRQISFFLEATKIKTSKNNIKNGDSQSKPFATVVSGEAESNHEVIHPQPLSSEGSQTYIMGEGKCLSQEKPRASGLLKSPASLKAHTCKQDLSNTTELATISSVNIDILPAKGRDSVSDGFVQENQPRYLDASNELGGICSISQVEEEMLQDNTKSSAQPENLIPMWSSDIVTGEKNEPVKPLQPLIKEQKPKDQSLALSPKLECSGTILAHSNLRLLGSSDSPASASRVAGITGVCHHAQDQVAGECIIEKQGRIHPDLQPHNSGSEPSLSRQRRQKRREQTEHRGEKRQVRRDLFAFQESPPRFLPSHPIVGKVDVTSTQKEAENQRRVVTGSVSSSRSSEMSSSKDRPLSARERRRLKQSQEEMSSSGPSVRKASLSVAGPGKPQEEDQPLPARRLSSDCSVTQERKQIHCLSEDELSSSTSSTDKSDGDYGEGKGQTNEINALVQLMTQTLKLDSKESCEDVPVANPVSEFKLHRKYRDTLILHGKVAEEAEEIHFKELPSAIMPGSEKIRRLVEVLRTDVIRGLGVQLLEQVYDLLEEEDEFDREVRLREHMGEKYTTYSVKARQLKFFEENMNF

[24] = target: Serine/threonine-protein kinase SIK2 (Homo sapiens) (UniProt Q9H0K1); details: Compound concentration 1000.0 nM
[25] = tested on: Epidermal growth factor receptor (Homo sapiens), P00533 [L861Q]; details: Compound concentration 1000.0 nM
[26] = target: Tyrosine-protein kinase SYK (Homo sapiens) (UniProt P43405); details: Compound concentration 1000.0 nM
[27] = target: Cyclin-dependent kinase-like 2 (Homo sapiens) (UniProt Q92772); details: Compound concentration 1000.0 nM
[28] = target: T1, Alpha-2A adrenergic receptor (Homo sapiens) (UniProt P08913); details: Compound concentration 10.0 uM
T1 sequence (whole entry): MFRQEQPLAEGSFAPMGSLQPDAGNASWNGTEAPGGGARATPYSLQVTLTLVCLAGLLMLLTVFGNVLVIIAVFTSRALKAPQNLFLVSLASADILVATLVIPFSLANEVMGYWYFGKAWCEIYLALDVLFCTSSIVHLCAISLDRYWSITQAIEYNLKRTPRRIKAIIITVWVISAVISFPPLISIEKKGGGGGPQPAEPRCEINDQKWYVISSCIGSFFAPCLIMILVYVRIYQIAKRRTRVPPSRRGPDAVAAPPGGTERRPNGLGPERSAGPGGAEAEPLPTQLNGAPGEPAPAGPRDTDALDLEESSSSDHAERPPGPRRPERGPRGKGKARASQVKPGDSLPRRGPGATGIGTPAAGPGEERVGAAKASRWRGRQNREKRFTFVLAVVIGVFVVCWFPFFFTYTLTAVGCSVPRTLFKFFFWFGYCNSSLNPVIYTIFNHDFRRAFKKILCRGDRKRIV

[29] = target: Serine/threonine-protein kinase 32B (Homo sapiens) (UniProt Q9NY57); details: Compound concentration 1000.0 nM
[30] = target: Serine/threonine-protein kinase D3 (Homo sapiens) (UniProt O94806); details: Compound concentration 1000.0 nM
Serine/threonine-protein kinase D3 (Homo sapiens), sequence (O94806 whole entry): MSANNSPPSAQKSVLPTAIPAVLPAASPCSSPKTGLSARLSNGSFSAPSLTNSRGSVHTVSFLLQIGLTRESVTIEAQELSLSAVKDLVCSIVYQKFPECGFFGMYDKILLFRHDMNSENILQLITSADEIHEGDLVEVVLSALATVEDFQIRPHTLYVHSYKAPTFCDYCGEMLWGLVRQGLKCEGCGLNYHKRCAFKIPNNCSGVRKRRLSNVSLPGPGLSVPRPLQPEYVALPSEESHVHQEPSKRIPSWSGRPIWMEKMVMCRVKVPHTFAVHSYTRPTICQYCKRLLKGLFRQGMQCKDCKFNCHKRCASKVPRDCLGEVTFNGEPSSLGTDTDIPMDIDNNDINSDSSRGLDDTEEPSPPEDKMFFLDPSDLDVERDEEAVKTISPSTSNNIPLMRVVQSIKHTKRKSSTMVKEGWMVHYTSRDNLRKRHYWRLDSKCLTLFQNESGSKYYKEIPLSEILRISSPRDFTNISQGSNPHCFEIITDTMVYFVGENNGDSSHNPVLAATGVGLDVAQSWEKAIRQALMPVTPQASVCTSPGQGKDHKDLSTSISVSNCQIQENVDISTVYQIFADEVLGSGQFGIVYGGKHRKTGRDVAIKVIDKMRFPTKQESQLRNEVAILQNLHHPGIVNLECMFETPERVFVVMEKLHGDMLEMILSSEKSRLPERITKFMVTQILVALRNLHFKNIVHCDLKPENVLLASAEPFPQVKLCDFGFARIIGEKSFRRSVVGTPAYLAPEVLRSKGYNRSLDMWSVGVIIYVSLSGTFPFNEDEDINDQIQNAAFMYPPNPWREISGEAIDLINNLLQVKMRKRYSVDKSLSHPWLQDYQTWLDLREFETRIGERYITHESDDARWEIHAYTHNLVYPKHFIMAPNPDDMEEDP

[31] = target: Dual specificity mitogen-activated protein kinase kinase 7 (Homo sapiens) (UniProt O14733); details: Compound concentration 1000.0 nM
[32] = tested on: Leucine-rich repeat serine/threonine-protein kinase 2 (Homo sapiens), Q5S007 [G2019S]; details: Compound concentration 1000.0 nM
[33] = target: Bone morphogenetic protein receptor type-1B (Homo sapiens) (UniProt O00238); details: Compound concentration 1000.0 nM
[34] = tested on: Mast/stem cell growth factor receptor Kit (Homo sapiens), P10721 [V559D,V654A]; details: Compound concentration 1000.0 nM
[35] = target: Serine/threonine-protein kinase 4 (Homo sapiens) (UniProt Q13043); details: Compound concentration 1000.0 nM
Serine/threonine-protein kinase 4 (Homo sapiens), sequence (Q13043 whole entry): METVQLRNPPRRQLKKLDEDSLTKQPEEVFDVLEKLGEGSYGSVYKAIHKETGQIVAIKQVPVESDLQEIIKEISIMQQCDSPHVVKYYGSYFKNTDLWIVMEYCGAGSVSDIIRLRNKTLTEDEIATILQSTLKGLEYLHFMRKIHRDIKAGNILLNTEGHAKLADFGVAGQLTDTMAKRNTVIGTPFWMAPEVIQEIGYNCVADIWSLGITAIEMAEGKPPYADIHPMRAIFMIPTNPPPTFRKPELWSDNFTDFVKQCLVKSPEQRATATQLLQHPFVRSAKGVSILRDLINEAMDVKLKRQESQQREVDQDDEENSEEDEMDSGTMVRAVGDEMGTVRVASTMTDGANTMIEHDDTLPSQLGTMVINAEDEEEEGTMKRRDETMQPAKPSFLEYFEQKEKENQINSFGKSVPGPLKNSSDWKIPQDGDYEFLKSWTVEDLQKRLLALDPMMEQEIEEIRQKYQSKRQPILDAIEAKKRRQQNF

[36] = target: Serine/threonine-protein kinase D1 (Homo sapiens) (UniProt Q15139); details: Compound concentration 1000.0 nM
[37] = target: Serine/threonine-protein kinase Nek11 (Homo sapiens) (UniProt Q8NG66); details: Compound concentration 1000.0 nM
[38] = target: Dual specificity mitogen-activated protein kinase kinase 2 (Homo sapiens) (UniProt P36507); details: Compound concentration 1000.0 nM
[39] = target: Non-receptor tyrosine-protein kinase TYK2 (Homo sapiens) (UniProt P29597); details: Compound concentration 1000.0 nM

Ephrin type-A receptor 5 (Homo sapiens), sequence (P54756 whole entry): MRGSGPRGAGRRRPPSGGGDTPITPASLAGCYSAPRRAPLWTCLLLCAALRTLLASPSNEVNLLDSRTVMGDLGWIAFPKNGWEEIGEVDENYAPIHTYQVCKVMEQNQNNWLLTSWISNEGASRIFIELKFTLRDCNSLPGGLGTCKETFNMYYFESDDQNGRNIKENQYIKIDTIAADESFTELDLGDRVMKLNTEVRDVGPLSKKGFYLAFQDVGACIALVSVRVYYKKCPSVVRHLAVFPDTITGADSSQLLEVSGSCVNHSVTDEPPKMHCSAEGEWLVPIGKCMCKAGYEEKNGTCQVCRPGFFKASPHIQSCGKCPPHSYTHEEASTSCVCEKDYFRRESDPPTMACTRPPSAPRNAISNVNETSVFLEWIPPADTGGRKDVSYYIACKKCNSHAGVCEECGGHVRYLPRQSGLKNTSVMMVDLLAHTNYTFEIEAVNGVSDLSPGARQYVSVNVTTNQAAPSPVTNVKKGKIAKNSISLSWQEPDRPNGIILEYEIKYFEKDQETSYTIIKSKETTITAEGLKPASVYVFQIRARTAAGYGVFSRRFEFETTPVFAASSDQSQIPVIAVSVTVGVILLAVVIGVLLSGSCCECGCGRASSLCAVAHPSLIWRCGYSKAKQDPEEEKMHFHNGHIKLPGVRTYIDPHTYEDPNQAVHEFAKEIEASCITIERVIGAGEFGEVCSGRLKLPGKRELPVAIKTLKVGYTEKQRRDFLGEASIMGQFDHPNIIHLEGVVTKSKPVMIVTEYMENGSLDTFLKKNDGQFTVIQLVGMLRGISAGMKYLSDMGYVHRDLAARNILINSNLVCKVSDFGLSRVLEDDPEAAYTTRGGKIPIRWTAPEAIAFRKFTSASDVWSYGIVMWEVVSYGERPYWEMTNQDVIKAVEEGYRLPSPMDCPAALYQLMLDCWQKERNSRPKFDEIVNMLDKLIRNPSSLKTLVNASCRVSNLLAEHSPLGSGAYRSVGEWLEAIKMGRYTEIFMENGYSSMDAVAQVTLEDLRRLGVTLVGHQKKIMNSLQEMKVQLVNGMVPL

CS(=O)(=O)NCC[C@H](NC(=O)c1cncc2c1cnn2-c1ccc(F)cc1)c1ccnc(S(C)(=O)=O)c1 [BI 9307]
inactive: residual activity [1] 100% | residual activity [2] 100% | residual activity [3] 100% | residual activity [4] 100% | residual activity [5] 100% | residual activity [6] 100% | residual activity [7] 100% | residual activity [8] 98% | residual activity [9] 85% | residual activity [10] 90% | residual activity [11] 100% | residual activity [12] 96% | residual activity [13] 100% | residual activity [14] 100% | residual activity [15] 100% | residual activity [16] 100% | residual activity [17] 85% | residual activity [18] 100% | residual activity [19] 100% | residual activity [20] 73% | residual activity [21] 80% | residual activity [22] 91% | residual activity [23] 100% | residual activity [24] 100% | residual activity [25] 100% | residual activity [26] 100% | residual activity [27] 100% | inhibition [28] 3.49% | residual activity [29] 67% | residual activity [30] 92% | residual activity [31] 100% | residual activity [32] 92% | residual activity [33] 100% | residual activity [34] 100% | residual activity [35] 100% | residual activity [36] 92% | residual activity [37] 100% | residual activity [38] 100% | residual activity [39] 100%

CS(=O)(=O)c1cc(C2(NC(=O)c3cncc4c3cnn4-c3ccc(F)cc3)CC2)ccn1 [BI 639667]
inactive: residual activity [1] 76% | residual activity [2] 97% | residual activity [3] 100% | residual activity [4] 100% | residual activity [5] 99% | residual activity [6] 100% | residual activity [7] 100% | residual activity [8] 83% | residual activity [9] 85% | residual activity [10] 100% | residual activity [11] 100% | residual activity [12] 100% | residual activity [13] 64% | residual activity [14] 100% | residual activity [15] 96% | residual activity [16] 100% | residual activity [17] 98% | residual activity [18] 100% | residual activity [19] 100% | residual activity [20] 100% | residual activity [21] 82% | residual activity [22] 90% | residual activity [23] 100% | residual activity [24] 100% | residual activity [25] 100% | residual activity [26] 100% | residual activity [27] 100% | inhibition [28] -2.44% | residual activity [29] 100% | residual activity [30] 97% | residual activity [31] 91% | residual activity [32] 100% | residual activity [33] 82% | residual activity [34] 88% | residual activity [35] 77% | residual activity [36] 100% | residual activity [37] 100% | residual activity [38] 80% | residual activity [39] 100%
